The values that follow come from publication PMC8504577, “Evaluation of a Clinically Relevant Drug–Drug Interaction Between Rosuvastatin and Clopidogrel and the Risk of Hepatotoxicity” (Frontiers in Pharmacology, 2021).

Where “and” joins values, the source holds several entries; their conditions need not be identical. Equal entries are not always repeated. Entries after “also recorded” stand apart in the source; their conditions may differ.

Series [1] has as its system human primary hepatocytes. On the procedure: (§1) Cytotoxicity was determined with MTT assay in cryopreserved human hepatocytes. Thawing and plating of cryopreserved hepatocytes were carried out according to the manufacturer’s protocol. Primary human hepatocytes at a density of 7×10^4 cells/well were cultured for 24 h after plating in 96-well collagen-coated plates. Then, the hepatocytes were treated with varying concentrations of RSV, CP, RSV plus CP, or tamoxifen and incubated for 24 or 96 h at 37°C. 11 μL of 5 mg/ml MTT was added to each well of the plate, and then the plate was incubated at 37°C for 3–4 h. After the medium was aspirated, 150 μL of DMSO was added to dissolve the formazan. The absorbance at 570 nm was measured and corrected for background absorption at 690 nm using a SpectraMax® i3 plate reader (Molecular Devices, Silicon Valley, CA, United States). AST and LDH levels in the medium of parallel processed plates were measured by commercially available assay kits. […] All experiments were performed in triplicate.
A Shimadzu LC-20AD liquid chromatography system (Shimadzu, Kyoto, Japan) and an API5000 triple quadrupole tandem mass spectrometer (Applied Biosystems/Sciex, Framingham, MA, United States) coupled with an electrospray ionization (ESI) source was used for the determination of in vitro samples. Chromatographic separation was conducted with gradient elution on a Synergi Hydro-RP column (30 × 2.0 mm, 4 μm, Phenomenex, Torrance, CA, United States). […] The mobile phase consisted of methanol (A) and water (B), both containing 0.1% (V/V) formic acid. The flow rate was 0.5 ml/min and the gradient elution was run using the following program: 0.01 min (15% A)-1.0 min (95% A), 1.5 min (95% A)-1.51 min (15% A), 2.5 min (stop).

Series [2] deals with human primary hepatocytes. Briefly: Cytotoxicity (MTT, AST, LDH) in cryopreserved human hepatocytes. The format is cell-based. The procedure: as §1, with “Primary human hepatocytes at a density of 7×10^4 cells/well were cultured for 24 h after plating in 96-well collagen-coated plates. Then, the hepatocytes were treated with varying concentrations of RSV, CP, RSV plus CP, or tamoxifen and incubated for 24 or 96 h at 37°C.” left out

Series [3] can be described thus: Plasma pharmacokinetic study in rats. The procedure: For the plasma pharmacokinetic study, 16 rats were randomly assigned into four groups (n = 4, each group, groups I to IV) and received oral (p.o.) administrations as oral gavage of CP (27 mg/kg) or the same volume of vehicle control for 20 days. Then, the rats were made to fast overnight before dosing but with free access to water. On day 21, rats in group I were treated with a p.o. dose as oral gavage of CP at 27 mg/kg and a single intravenous (i.v.) dose of RSV at 5 mg/kg. Rats in group II were treated with a p.o. dose as oral gavage of vehicle control and a single i.v. dose of RSV at 5 mg/kg. Rats in group Ⅲ were treated with a p.o. dose as oral gavage of CP at 27 mg/kg and a p.o. dose as oral gavage of RSV at 5 mg/kg. Rats in group Ⅳ were treated with a p.o. dose as oral gavage of vehicle control and a p.o. dose as oral gavage of RSV at 5 mg/kg. Blood samples (0.15 ml) were collected at 0, 1, 2, 5, 15, 30, 60, 120, 180, 360, 480, 600, and 720 min after administration of the i.v. dose of the RSV group and at 0, 5, 30, 60, 120, 180, 360, 480, 600, and 720 min for the p.o. dose as oral gavage of the RSV group. After each sampling, a volume of 0.15 ml physiologic saline solutions was administered to sustain isotonic fluid balance. Plasma samples were harvested by using a centrifuge and then stored at −80°C until analysis by LC-MS/MS.
A Shimadzu LC-30AD liquid chromatography system (Shimadzu, Kyoto, Japan) and an API4000 triple quadruple tandem mass spectrometer (Applied Biosystems/Sciex, Framingham, MA, United States) coupled with an ESI source was used for the LC-MS/MS analysis of in vivo samples. The separation was carried out on an Agilent Extend C18 column (1.8 µm, 4.6 mm × 30 mm, Agilent Technologies). The mobile phase consisting of acetonitrile (A) and water (B: 1 mM ammonium acetate and 1% (V/V) formic acid). […] The flow rate was 1 ml/min and the gradient elution method was as follows: 0.01 min (10% A)-0.4 min (10% A), 0.8 min (95% A)-2.0 min (95% A), and 2.3 min (10% A)-2.5 min (stop).
Phoenix WinNonlin® 7.1 (Pharsight Corporation, Mountain View, CA, United States) was used to calculate the pharmacokinetic parameters by the noncompartmental method. IC50 values were obtained by a computer-generated nonlinear least squares fit using GraphPad Prism 8.1 (GraphPad Software, San Diego, CA, United States). Statistical analysis was performed using SPSS ver. 22.0 (IBM, Chicago, IL, United States). The results are presented as mean ± S.D., unless otherwise stated. After testing for the homogeneity of variance, statistical analysis was performed with a one-way ANOVA followed by the LSD post hoc test or unpaired Student’s t-test. A probability (p) of less than 0.05, 0.01, and 0.001 was considered to be statistically significant, highly significant, and extremely significant, respectively.

The mark [4] stands for this setting: 96 h co-exposure with 100 µM CP vs without CP.
Where [5] appears, read: rats, p.o. RSV (group III vs IV).
[6] abbreviates: rats, p.o. RSV (group III vs IV), not significant.

Regarding `COC(=O)[C@H](c1ccccc1Cl)N1CCc2sccc2C1` [CP, clopidogrel], in series [1] (human), the Free medium concentration was 0.026 to 0.40 nM. In series [2] (24 and 96 h incubation), the “Cytotoxicity (MTT)” value is on record as “no effect on cell viability; also recorded: did not show hepatotoxic effects”. Moreover, in series [2] (96 h, presence of 100 µM CP), the “AST level in medium” value is reported as “trend of increase” and the “LDH level in medium” value is listed as “missed statistical significance”. The Plasma concentration entry in series [3] (rats, after 8 h post-dosing) is given as “undetectable”.
For `CC(C)c1nc(N(C)S(C)(=O)=O)nc(-c2ccc(F)cc2)c1/C=C/[C@@H](O)C[C@@H](O)CC(=O)O` [RSV, rosuvastatin], in series [1] (setting [4]), the “Cell to medium concentration ratio of RSV” value is listed as “significantly increased; also recorded: significantly enhanced” and the “Intracellular concentration of RSV” value is recorded as “significantly increased; also recorded: significantly enhanced”. In addition, the “Cytotoxicity (MTT)” value in series [2] (96 h, co-incubation with 100 µM CP where combined) is listed as “dose-dependent cytotoxicity”. For the same compound, in series [3] (rat plasma, Group II: single i.v. RSV 5 mg/kg + p.o. vehicle control), the “Vss (Vss/F)” value is 1,148.40 ± 701.23 ml/kg. In series [3] (rats, i.v. RSV), the “RSV AUC in presence of CP relative to absence” value came out at 1.76 fold. Moreover, in series [3] (rats, i.v. RSV (group I vs II)), the “Decrease of RSV CL by multiple p.o. doses of CP” value was 42.62% and 42.6%; the “Increase of RSV plasma AUC0-infinity by multiple p.o. doses of CP” value is recorded as 76.29%; the “Increase of RSV plasma AUC0–12h by multiple p.o. doses of CP” value turned out to be 75.55%. For the same compound, the “Increase of RSV Cmax by multiple p.o. doses of CP” value in series [3] (rats, i.v. RSV (group I vs II), not significant) amounted to 110.32%. Further, the “RSV AUC in presence of CP relative to absence” value in series [3] (rats, p.o. RSV) is given as 1.87 fold. Besides, in series [3] (setting [5]), the “Decrease of RSV CL by multiple p.o. doses of CP” value is 43.27% and 43.3%; the “Increase of RSV plasma AUC0-infinity by multiple p.o. doses of CP” value stood at 87.48%; the “Increase of RSV plasma AUC0–12h by multiple p.o. doses of CP” value stood at 67.27%. In series [3] (setting [6]), the “Decrease of RSV Vss by multiple p.o. doses of CP” value is 49.42% and the “Increase of RSV Cmax by multiple p.o. doses of CP” value amounted to 43.90%. In addition, the clearance in series [3] (read-out: CL (CL/F), rat plasma, Group II: single i.v. RSV 5 mg/kg + p.o. vehicle control) is 59.1 mL/min/kg.
